# From publication PMC6981581, “N-(2-Arylmethylthio-4-Chloro-5-Methylbenzenesulfonyl)amide Derivatives as Potential Antimicrobial Agents—Synthesis and Biological Studies” (International Journal of Molecular Sciences, 2019)
# Values joined by “and” are separate entries in the source; they are usually repeats but may differ in a detail not shown here. Identical values can stand only once. Like-named read-outs stand apart in the source and are kept apart here.
# Tests used:
# [1] = test system: Candida albicans ATCC 10231; assay: Broth dilution MIC/MFC, reference fungal strain; type: cell-based; conditions: Candida albicans, ATCC10231
# Summary of the method: (§1)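 Compounds were serially diluted in Mueller Hinton Broth 2, inoculated at 5 × 10^5 cfu/mL and incubated at 37 °C for 18 h. Samples were then plated on Tryptic Soy Agar for 48 h at 37 °C to obtain bactericidal or fungicidal endpoints.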
# [2] = test system: Proteus vulgaris NCTC 4635; assay: Broth dilution MIC/MBC, reference strain; type: cell-based; conditions: Proteus vulgaris, NCTC4635
# Summary of the method: as §1
# [3] = test system: Enterococcus faecalis ATCC 11420; assay: Broth dilution MIC/MBC, reference strain; type: cell-based; conditions: Enterococcus faecalis, ATCC11420
# Summary of the method: as §1
# [4] = test system: Staphylococcus epidermidis PCM 2118; assay: Broth dilution MIC/MBC, reference strain; type: cell-based
# Summary of the method: as §1
# [5] = test system: Escherichia coli ATCC 11229; assay: Broth dilution MIC/MBC, reference strain; type: cell-based; conditions: Escherichia coli, ATCC11229
# Summary of the method: as §1
# [6] = test system: Pseudomonas aeruginosa ATCC 15442; assay: Broth dilution MIC/MBC, reference strain; type: cell-based; conditions: Pseudomonas aeruginosa, ATCC15442
# Summary of the method: as §1
# [7] = test system: Staphylococcus aureus ATCC 43300 (MRSA); assay: Broth dilution MIC/MBC, reference strain; type: cell-based; conditions: Staphylococcus aureus
# Summary of the method: as §1
# [8] = test system: Staphylococcus aureus ATCC 6538 (MSSA); assay: Broth dilution MIC/MBC, reference strain; type: cell-based; conditions: Staphylococcus aureus
# Summary of the method: as §1
# S.aureus 57 (MSSA) = assay: Broth dilution MIC/MBC, clinical MSSA isolate; type: cell-based; conditions: Staphylococcus aureus, MSSA
# Description: (§2) […]. Both MRSA and MSSA strains were derived from various human infections.
# (§3) […]. Five methicillin-resistant S. aureus strains were isolated from nose (n = 1), bronchoalveolar lavage (n = 1), sputum (n = 1), wound (n = 1), and blood (n = 1); five methicillin-susceptible S. aureus strains were isolated from throat (n = 1), bronchoalveolar lavage (n = 1), sputum (n = 1), abscess (n = 1), and blood (n = 1).
# (§4) The identity of S. aureus isolates was confirmed with conventional methods and with Pastorex Staph-Plus latex agglutination kit (Bio-Rad, Marnes-la-Coquette, France) and verified applying the polymerase chain reaction (PCR) of S. aureus-specific region of the thermonuclease gene, nuc. Resistance to methicillin was first verified using cefoxitin disk (30 µg), and then, identified based on the presence of mecA gene. S. aureus ATCC®25923 (methicillin-susceptible) and S. aureus ATCC®43300 (MDR) were applied as the reference strains. Both the reference and clinical strains were stored at −80 °C, in Tryptic Soy Broth (TSB, Becton-Dickinson, Franklin Lakes, NJ, USA) supplemented with 15% glycerol.
# (§5) A broth dilution method was used to determine minimal inhibitory concentration (MIC) for tested compounds as recommended by Clinical Laboratory Standards Institute (CLSI) guidelines. Investigated compounds were diluted in Mueller Hinton Broth 2 (Sigma-Aldrich Co., St. Louis, MO, USA) in polypropylene 96-well plates and initial inoculum 5 × 10^5 cfu/mL were incubated at 37 °C for 18 h. MIC was taken as the lowest drug concentration at which an observable growth was inhibited. […] The loopful (10 µL) of the tested sample was transferred to Tryptic Soy Agar (TSA, Becton-Dickinson, Franklin Lakes, NJ, USA) and incubated at 37 °C for 48 h. […] Drug Solutions were made fresh on the day of the assay. All experiments were performed in triplicate.
# S.aureus 59 (MSSA) = assay: Broth dilution MIC/MBC, clinical MSSA isolate; type: cell-based; conditions: Staphylococcus aureus, MSSA
# Description: as §2, §3, §4, §5
# S.aureus 58 (MSSA) = assay: Broth dilution MIC/MBC, clinical MSSA isolate; type: cell-based; conditions: Staphylococcus aureus, MSSA
# Description: as §2, §3, §4, §5
# S.aureus 56 (MSSA) = assay: Broth dilution MIC/MBC, clinical MSSA isolate; type: cell-based; conditions: Staphylococcus aureus, MSSA
# Description: as §2, §3, §4, §5
# S.aureus 55 (MSSA) = assay: Broth dilution MIC/MBC, clinical MSSA isolate; type: cell-based; conditions: Staphylococcus aureus, MSSA
# Description: as §2, §3, §4, §5
# [9] = test system: HaCaT cell line (human keratinocyte); assay: MTT cell viability assay; type: cell-based; conditions: 72 h, read-out: IC50 HaCaT
# S.aureus 54 (MRSA) = assay: Broth dilution MIC/MBC, clinical MRSA isolate; type: cell-based; conditions: Staphylococcus aureus, MRSA
# Description: as §2, §3, §4, §5
# S.aureus 51 (MRSA) = assay: Broth dilution MIC/MBC, clinical MRSA isolate; type: cell-based; conditions: Staphylococcus aureus, MRSA
# Description: as §2, §3, §4, §5
# S.aureus 53 (MRSA) = assay: Broth dilution MIC/MBC, clinical MRSA isolate; type: cell-based; conditions: Staphylococcus aureus, MRSA
# Description: as §2, §3, §4, §5
# S.aureus 50 (MRSA) = assay: Broth dilution MIC/MBC, clinical MRSA isolate; type: cell-based; conditions: Staphylococcus aureus, MRSA
# Description: as §2, §3, §4, §5
# S.aureus 52 (MRSA) = assay: Broth dilution MIC/MBC, clinical MRSA isolate; type: cell-based; conditions: Staphylococcus aureus, MRSA
# Description: as §2, §3, §4, §5
# [10] = test system: clinical isolates of methicillin-resistant S. aureus (50–54) and methicillin-sensitive S. aureus (55–59); assay: Broth dilution MIC/MBC, summary over clinical S. aureus isolates; type: cell-based, Staphylococcus aureus
# Description: as §2, §3, §4, §5
# MRSA 52 biofilm = assay: Biofilm inhibition assay (crystal violet); type: cell-based, Staphylococcus aureus; conditions: MRSA 52, 4 × MIC
# Experimental: (§6) For many decades, S. aureus has been identified as the most common etiologic agent of device related infections, associated with biofilm formation. These infections are hard to cure because the specific structure of biofilm confers resistance to the host immune response and to the action of antibiotics.
# (§7) Then, 100 µL bacterial suspension prepared from fresh overnight culture by diluting with TSB to obtain the initial inoculum 2 × 10^6 CFU/mL was added. The plates were incubated for 24 h at 37 °C. After the incubation, the wells were discarded and were gently rinsed three times with PBS to remove planktonic staphylococcal cells. Then, contents of the wells were discarded and the biofilm was fixed with 200 µL methanol for 20 min and dried at room temperature for 30 min. The biofilm was stained by adding 200 µL 1.8% crystal violet solution for 15 min. After staining, the plates were rinsed with water and 200 µL bleaching solution (30% ethanol, 30% glacial acetic acid, 40% water) added for 15 min to dissolve the remaining crystal violet. A microplater reader was used to measure the absorbance of the adherent biofilm at 570 nm (OD570). […] The negative control included only the growth medium.
# MRSA 51 biofilm = assay: Biofilm inhibition assay (crystal violet); type: cell-based, Staphylococcus aureus
# Experimental: as §6, §7
# MSSA 58 biofilm = assay: Biofilm inhibition assay (crystal violet); type: cell-based, Staphylococcus aureus
# Experimental: as §6, §7
# MSSA 59 biofilm = assay: Biofilm inhibition assay (crystal violet); type: cell-based, Staphylococcus aureus; conditions: MSSA 59, 4 × MIC
# Experimental: as §6, §7
# [11] = test system: Gram-positive reference strains; assay: Broth dilution MIC/MBC, summary over Gram-positive reference strains; type: cell-based
# Experimental: […]. The tests were carried out using a serial dilution method, allowing the determination of MIC (minimal concentration inhibiting bacterial growth), MBC (minimal bactericidal concentration), and MFC (minimal fungicidal concentration) values.
# Antimicrobial activity was tested using the following reference strains: Staphylococcus aureus ATCC 6538 (MSSA), Staphylococcus aureus ATCC 43300 (MRSA), Staphylococcus epidermidis PCM 2118, Escherichia coli ATCC 11229, Pseudomonas aeruginosa ATCC 15442, Proteus vulgaris NCTC 4635, Enterococcus faecalis ATCC 11420, and Candida albicans ATCC 10231.
# as §5
smiles,measurement,setting,value
"Cc1cc(S(=O)(=O)NC(=O)C=Cc2ccccc2)c(SCc2cccc3ccccc23)cc1Cl [Compound 16, N-[4-Chloro-5-methyl-2-(naphthalen-1-ylmethylthio)benzenesulfonyl]cinnamamide]",MFC,[1],128 mg/L
same,MIC,[1],64 mg/L
same,MBC,[2],> 128 mg/L
same,MIC,[2],128 mg/L
same,MBC,[3],> 128 mg/L
same,MIC,[3],8 mg/L
same,MBC,[4]; S. epidermidis PCM 2118,4 mg/L
same,MIC,"[4]; Staphylococcus epidermidis, PCM2118",4 mg/L
same,MBC,"[4]; Staphylococcus epidermidis, PCM2118, S. epidermidis PCM 2118, read-out: MBC",4 to 16 mg/L
same,MBC,[5],> 128 mg/L
same,MIC,[5],128 mg/L
same,MBC,[6],> 128 mg/L
same,MIC,[6],128 mg/L
same,MBC,[7],> 128 mg/L
same,MIC,[7],4 mg/L
same,MBC,[8],> 128 mg/L
same,MIC,[8],4 mg/L
same,MBC,S.aureus 57 (MSSA),> 128 mg/L
same,MIC,S.aureus 57 (MSSA),4 mg/L
same,MBC,S.aureus 59 (MSSA),> 128 mg/L
same,MIC,S.aureus 59 (MSSA),4 mg/L
same,MBC,S.aureus 58 (MSSA),> 128 mg/L
same,MIC,S.aureus 58 (MSSA),8 mg/L
same,MBC,S.aureus 56 (MSSA),> 128 mg/L
same,MIC,S.aureus 56 (MSSA),4 mg/L
same,MBC,S.aureus 55 (MSSA),> 128 mg/L
same,MIC,S.aureus 55 (MSSA),4 mg/L
same,IC50,[9],19 µg/mL and 38 µM
same,MBC,S.aureus 54 (MRSA),> 128 mg/L
same,MIC,S.aureus 54 (MRSA),8 mg/L
same,MBC,S.aureus 51 (MRSA),> 128 mg/L
same,MIC,S.aureus 51 (MRSA),4 mg/L
same,MBC,S.aureus 53 (MRSA),> 128 mg/L
same,MIC,S.aureus 53 (MRSA),8 mg/L
same,MBC,S.aureus 50 (MRSA),> 128 mg/L
same,MIC,S.aureus 50 (MRSA),4 mg/L
same,MBC,S.aureus 52 (MRSA),> 128 mg/L
same,MIC,S.aureus 52 (MRSA),4 mg/L
same,MBC,[10]; Staphylococcus aureus,> 128 mg/L
same,MIC,[10]; Staphylococcus aureus,4 to 8 mg/L
same,MIC,[10]; summary over ten clinical MRSA and MSSA isolates (Table 4),4 to 8 mg/L
same,inhibition of biofilm formation,MRSA 52 biofilm,87–90%
same,inhibition of biofilm formation,"MRSA 51 biofilm; MRSA 51, 4 × MIC",87–90%
same,inhibition of biofilm formation,"MRSA 51 biofilm; MRSA 51, concentration equal to the MIC",35%
same,inhibition of biofilm formation,"MSSA 58 biofilm; MSSA 58, 2 × MIC",86%
same,inhibition of biofilm formation,"MSSA 58 biofilm; MSSA 58, concentration equal to the MIC",44%
same,inhibition of biofilm formation,MSSA 59 biofilm,87–90%
same,MIC,[11],4 to 8 mg/L
